Measurements taken from ChEMBL document CHEMBL3638614, “Diaza-spiro[5.5]undecanes” (2013).

Columns and labels:
[1] = target: T1, Orexin/Hypocretin receptor type 1 (Homo sapiens, UniProt O43613); assay: (§1) FLIPR Assay : FLIPR assay using orexin receptor.
T1 sequence (O43613 whole entry): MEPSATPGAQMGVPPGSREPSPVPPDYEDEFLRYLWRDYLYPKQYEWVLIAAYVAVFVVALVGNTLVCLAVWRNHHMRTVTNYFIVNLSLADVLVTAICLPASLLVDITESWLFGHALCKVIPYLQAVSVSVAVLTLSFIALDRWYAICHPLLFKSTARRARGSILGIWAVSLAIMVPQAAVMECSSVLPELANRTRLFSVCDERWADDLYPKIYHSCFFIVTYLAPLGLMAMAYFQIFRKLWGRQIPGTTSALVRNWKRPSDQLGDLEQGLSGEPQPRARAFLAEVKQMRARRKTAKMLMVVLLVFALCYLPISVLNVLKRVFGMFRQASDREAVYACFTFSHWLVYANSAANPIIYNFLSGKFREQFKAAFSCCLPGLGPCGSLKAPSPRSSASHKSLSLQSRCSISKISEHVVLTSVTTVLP

Orexin receptor type 2 [2] = target: T2, Orexin receptor type 2 (Homo sapiens, UniProt O43614); assay: as §1
T2 sequence (O43614 whole entry): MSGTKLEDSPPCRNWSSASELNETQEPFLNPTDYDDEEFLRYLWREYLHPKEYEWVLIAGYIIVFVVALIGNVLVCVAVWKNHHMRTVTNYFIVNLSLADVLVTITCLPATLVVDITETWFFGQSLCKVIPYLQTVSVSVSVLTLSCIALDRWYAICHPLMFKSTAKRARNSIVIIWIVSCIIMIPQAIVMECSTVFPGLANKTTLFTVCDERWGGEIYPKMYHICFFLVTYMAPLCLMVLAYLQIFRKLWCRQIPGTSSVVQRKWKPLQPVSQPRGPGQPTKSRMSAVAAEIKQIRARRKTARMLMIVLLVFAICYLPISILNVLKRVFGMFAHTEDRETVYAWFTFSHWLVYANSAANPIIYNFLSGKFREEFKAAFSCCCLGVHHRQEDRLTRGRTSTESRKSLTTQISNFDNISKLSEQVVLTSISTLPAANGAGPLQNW

[3] = target: T1, Orexin/Hypocretin receptor type 1; assay: (§2) Radioligand Binding Assay : Radioligand binding assay using orexin receptor.
Orexin receptor type 2 [4] = target: T2, Orexin receptor type 2; assay: as §2

Structure (SMILES)	Ki [1] [µM]	Ki (Orexin receptor type 2 [2]) [µM]	Kd [3] [µM]	Kd (Orexin receptor type 2 [4]) [µM]
O=C1N(Cc2cc(Cl)cc3c2OCOC3)CCCC12CCN(c1cnc3ccccc3n1)CC2	1.54	0.739	–	–
Cn1c(N2CCC3(CCCN(Cc4ccccc4)C3=O)CC2)nc2ccccc21	–	–	> 10	> 10
O=C1N(Cc2cccc3ccccc23)CCCC12CCN(c1nc3ccccc3[nH]1)CC2	2.46	0.126	> 10	0.755
